# Data as given in US10428055B2, “Substituted piperidines having GPR119 agonistic activity” (DONG-A ST CO., LTD., priority 2014, dated 2019).
# Experiments:
# Human GPR119 = molecular target: T1, Human GPR119 (Homo sapiens, UniProt Q8TDV5); assay: Human GPR119 activation assay (cAMP, HTRF); type: cell-based; details: 1 h, HEK293 cells transiently expressing human GPR119, relative to maximum effect of OEA, read-out: hGPR119 activation ability (cAMP assay) Relative Response % vs OEA; for Emax at 0.001 µM: 1 nM; for Emax at 0.01 µM: 10 nM
# T1 construct: host or cells: HEK293 (ATCC)
# T1 sequence (Q8TDV5 1-335): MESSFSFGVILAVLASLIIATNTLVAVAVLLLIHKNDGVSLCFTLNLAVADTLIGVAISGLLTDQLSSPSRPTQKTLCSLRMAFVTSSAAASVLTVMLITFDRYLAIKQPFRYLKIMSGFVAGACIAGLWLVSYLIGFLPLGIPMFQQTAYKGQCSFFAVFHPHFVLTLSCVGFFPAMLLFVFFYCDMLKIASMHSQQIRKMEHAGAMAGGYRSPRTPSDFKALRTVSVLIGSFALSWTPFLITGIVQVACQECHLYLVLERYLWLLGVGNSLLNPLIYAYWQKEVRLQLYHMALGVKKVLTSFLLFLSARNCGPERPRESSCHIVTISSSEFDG
# How it was run: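 HEK293 cells transiently overexpressing human GPR119 (48 h), pre-treated 10 min then exposed 60 min to compound in KRBH with 11.1 mM glucose, 0.1% BSA and 0.5 mM IBMX. Intracellular cAMP quantified by HTRF; activation expressed as % of maximal oleoylethanolamide effect from multiple-concentration testing.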
# C57BL/6 mouse = assay: Assessment of glucose tolerance improvement effect in mouse; type: in vivo; details: 2 h; 10 mg/kg oral, 30 min before oral glucose 2 g/kg; male C57BL/6 mouse; blood glucose AUC
# Description: <Experimental Example 2>Assessment of glucose tolerance improvement effect in mouse
# As one of anti-diabetic effect indicators, the glucose tolerance improvement effect of the above compounds was evaluated in 7-week male laboratory mouse (C57BL/6 mouse), as the effect of improving postprandial glycemic control ability.
# The laboratory mouse was fasted from the day before the experiment for 16-17 hours. The compound of the present invention was orally administered 30 minutes before administrating glucose, and after 30 minutes, a glucose solution (2 g/kg/10 ml) was orally administered. A drug was prepared by suspending in a 10% Gelucire solution. At the times immediately before drug administration, immediately before glucose solution administration, 15 minutes, 30 minutes, 60 minutes, 90 minutes, and 120 minutes after glucose administration, the whole blood glucose levels was measured from tail vein using a blood glucose meter (AccuChek Active, Roche Diagnostics), and the area under the curve of a temporal blood glucose curve was calculated. From the calculated area under the blood glucose curve, the area under the blood glucose curve of a negative control group to which no glucose solution was administered was subtracted, and inhibitory activity against blood glucose increase of a control group to which only the 10% Gelucire solution and glucose solution were administered was calculated as a percentage, thereby evaluating the glucose tolerance improvement efficacy of a drug.
# The results are shown in Table 3, in which the glucose tolerance improvement effect represented at a dose of 10 mg/kg was represented by classifying into three groups, under 30%, more than 30% under 40%, and more than 40%. A significant glucose tolerance improvement effect was identified in 22 compounds on which the experiment was carried out, and among those compounds, 16 compounds represented an excellent in vivo activity of 30% inhibitory dose of 10 mg/kg or less. In the following Table 3, A represents an inhibitory activity more than 40%, B represents an inhibitory activity more than 30% under 40% and C represents an inhibitory activity under 30%.
Compound,Emax at 0.001 µM (Human GPR119) [%],Emax at 0.01 µM (Human GPR119) [%],inhibition in vivo at 10 mg/kg (C57BL/6 mouse) [%]
"CC(C)c1nnc(-c2c(F)cc(OCCCC3CCN(c4cnc(Cl)cn4)CC3)cc2F)o1 [Example 51, 2-(4-(3-(1-(5-chloropyrazin-2-yl)piperidin-4-yl)propoxy)-2,6-difluorophenyl)-5-isopropyl-1,3,4-oxadiazole]",90.7,180,> 40
"CCc1cnc(N2CCC(CCCOc3cc(F)c(-c4nnc(C)o4)c(F)c3)CC2)nc1 [Example 42, 2-(4-(3-(1-(5-ethylpyrimidin-2-yl)piperidin-4-yl)propoxy)-2,6-difluorophenyl)-5-methyl-1,3,4-oxadiazole]",127,150,> 40
"CCCCCc1cnc(N2CCC(CCCOc3cc(F)c(-c4noc(C(C)C)n4)c(F)c3)CC2)nc1 [Example 24, 3-(2,6-difluoro-4-(3-(1-(5-pentylpyrimidin-2-yl)piperidin-4-yl)propoxy)phenyl)-5-isopropyl-1,2,4-oxadiazole]",132,309,< 30
